Species on record: Rattus norvegicus
Experiment: Open TG-GATES - Regimen: Single
Type: toxicity, organism-based, Sprague-Dawley
Design: regimen Single, gender Male, age 6 weeks
Details: in vivo, po, 1000 mg/kg, route gavage, dose level High; for APTT / Bas / Eos / Fbg / Hb / Ht / Lym / MCH / MCHC / MCV / Mono / Neu / PT / Plat / RBC / Ret / WBC: tissue Blood; for KIDNEY_L / KIDNEY_R / KIDNEY_TOTAL: tissue Kidney; for LIVER: tissue Liver; for A/G / ALP / ALT / AST / BUN / CRE / Ca / Cl / DBIL / GLC / IP / K / LDH / Na / PL / RALB / TBIL / TC / TG / TP / gamma-GTP: tissue Plasma

## COC1=CC(=O)C[C@@H](C)[C@]12Oc1c(Cl)c(OC)cc(OC)c1C2=O [GRISEOFULVIN]
3 h
  TERMINAL_BW: 213.3 g
  APTT: 19.4 s
  Bas: 0%
  Eos: 1%
  Fbg: 212.2 mg/dL
  Hb: 12.2 g/dL
  Ht: 35.6%
  Lym: 78.4%
  MCH: 21.9 pg
  MCHC: 34.3%
  MCV: 63.7 fL
  Mono: 3%
  Neu: 17%
  PT: 13.2 s
  Plat: 124.4 x10_4/uL
  RBC: 557.4 x10_4/ul
  Ret: 8.3%
  WBC: 88.7 x10_2/uL
  KIDNEY_L: 0.9 g
  KIDNEY_R: 0.9 g
  KIDNEY_TOTAL: 1.9 g
  LIVER: 9.6 g
  A/G: 1.9
  ALP: 900 IU/L
  ALT: 36 IU/L
  AST: 66.6 IU/L
  BUN: 10.6 mg/dL
  CRE: 0.3 mg/dL
  Ca: 11 mg/dL
  Cl: 103.6 meq/L
  DBIL: 0.2 mg/dL
  GLC: 184.2 mg/dL
  IP: 8.2 mg/dL
  K: 4 meq/L
  LDH: 128.4 IU/L
  Na: 140.4 meq/L
  PL: 179.2 mg/dL
  RALB: 3.4 g/dL
  TBIL: 0.3 mg/dL
  TC: 86 mg/dL
  TG: 122.6 mg/dL
  TP: 5.2 g/dL
  gamma-GTP: 1.6 IU/L
6 h
  TERMINAL_BW: 211 g
  APTT: 18.5 s
  Bas: 0%
  Eos: 1%
  Fbg: 211.2 mg/dL
  Hb: 12.7 g/dL
  Ht: 37.4%
  Lym: 75.6%
  MCH: 21.9 pg
  MCHC: 34%
  MCV: 64.3 fL
  Mono: 4%
  Neu: 19%
  PT: 13.3 s
  Plat: 123.4 x10_4/uL
  RBC: 582 x10_4/ul
  Ret: 7.7%
  WBC: 90 x10_2/uL
  KIDNEY_L: 1 g
  KIDNEY_R: 1 g
  KIDNEY_TOTAL: 2 g
  LIVER: 9.2 g
  A/G: 1.7
  ALP: 994.4 IU/L
  ALT: 34 IU/L
  AST: 66.8 IU/L
  BUN: 10.4 mg/dL
  CRE: 0.3 mg/dL
  Ca: 10.8 mg/dL
  Cl: 103.2 meq/L
  DBIL: 0.092 mg/dL
  GLC: 204 mg/dL
  IP: 9.1 mg/dL
  K: 4.1 meq/L
  LDH: 144.2 IU/L
  Na: 141 meq/L
  PL: 154.6 mg/dL
  RALB: 3.3 g/dL
  TBIL: 0.2 mg/dL
  TC: 82.8 mg/dL
  TG: 45 mg/dL
  TP: 5.3 g/dL
  gamma-GTP: 1.4 IU/L

From ChEMBL document CHEMBL3885861, “Open TG-GATES”
